# Data reported in PubChem BioAssay AID2060327 (Molecular Pharmacology Branch, DTP, NCI, 2025).
# Test system: PC-3 multi-cell spheroids, viability
# Test: Anticancer human tumor PC-3 cell line growth inhibition [IpAb];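 note: spheroids exposed to compounds for 7 days before readout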;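 for viability, T/C: 100% = DMSO vehicle control wells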
# Settings: for IC50: curve of first compound; for viability, T/C: stronger effect = lower value
# Source text: Combinatorial screen of targeted agents with ipatasertib and abemaciclib in multi-cell type tumor spheroids
# A high-throughput screen of multi-cell type tumor spheroids was designed to identify active combinations of targeted small molecules and ipatasertib or abemaciclib. Complex spheroids include a stromal component modeled by human endothelial cells (HUVEC) and fibroblasts modeled by human mesenchymal stem cells (MSCs). The concentration ranges selected for each drug and investigational agent were based upon clinically achievable concentrations if the clinical Cmax of the agent was known.
# Compounds. The drugs and investigational agents: ipatasertib (NSC767898), abemaciclib(NSC768073), selumetinib (NSC741078), trametinib (758246), adavosertib (NSC754352), everolimus (NSC733504), sapanisertib (NSC764658), vemurafenib (NSC761431), venetoclax (NSC766270), copanlisib (NSC809693), apelisib (NSC765974), palbociblib (NSC758247), vemurafenib (NSC761431), dabrafenib (NSC764134), ravoxertinib (NSC781343), BMS-387032 (NSC767048), sotorasib (NSC818433), talazoparib (NSC767125) and afursertib (NSC778305), were obtained from the National Cancer Institute (NCI) Developmental Therapeutics Program Chemical Repository. The FDA-approved anticancer drug set is available from the NCI Developmental Therapeutics Program. […] The stock solutions were prepared in dimethyl sulfoxide (DMSO, Sigma-Aldrich, St. Louis, MO, cat. D2650) at 800-fold the tested concentration and stored at -70 degrees C prior to their use. All drugs and investigational agents were tested over a range starting from a high concentration at or near the clinical Cmax and decreasing in half-log increments. If the clinical Cmax for an agent had not been determined, the highest concentration tested was 10 microM.
# NCI60 Cell Culture. NCI60 cell lines were obtained from the NCI Developmental Therapeutics Program Tumor Repository. For each lot of cells, the Repository performed Applied Biosystems AmpFLSTR Identifiler testing with PCR amplification to confirm consistency with the published Identifier STR profile for each cell line. Cells were kept in continuous culture for no more than 20 passages. The optimal seeding densities for each of the cell lines at each time point assessed were determined prior to performing the concentration response studies. Briefly, the NCI60 human tumor lines were grown as monolayers in RPMI 1640 medium supplemented with 10% FBS and 2 mmol/L L-glutamine.
# An additional 9 lines were from the NCI60 cell line panel including MDA-MB-231 breast carcinoma, MDA-MB-468 breast carcinoma, MCF7 breast carcinoma, Hs578T breast carcinoma, MALME-3M melanoma, SK-MEL-2 melanoma, SK-OV-3 ovarian carcinoma, DU-145 prostate carcinoma, PC-3 prostate carcinoma, all cell lines along with major genetic alterations are listed on Table 2. Pooled donor human umbilical vein endothelial cells (HUVEC, Lonza, cat. CC-2519) and human mesenchymal stem cells (hMSC, Lonza, cat. PT-2501) were purchased from Lonza (Walkersville, MD).
# PDMR cell lines were grown in complete medium (DC medium): Dulbecco's modified Eagle's medium (DMEM)/F12 supplemented with 5% fetal bovine serum (FBS), 2 mM L-glutamine, 100 U/mL penicillin and 100 µg/ml streptomycin, 0.4 µg/ml hydrocortisone, 10 ng/ml epidermal growth factor (EGF) recombinant human protein, 24 µg/mL adenine, and 0.1 mg/mL primocin. During culture from frozen stock vials, PDMR cells were cultured in the same medium containing 10 µM Y-27632 (see Table 3). The PDCs were cultured in complete DMEM/F12 media without 10 microM Y-27632 dihydrochloride for at least two passages prior to the screen. The pooled donor HUVEC and hMSC were cultured in endothelial cell growth medium 2 (PromoCell, Heidelberg, Germany, cat. C-22011) and mesenchymal stem cell growth medium 2 (PromoCell, cat. C-28009), respectively. For all experiments, HUVEC and hMSC were used at passages </=5.
# […]
smiles,measurement,setting,value
CC(C)(C)c1cnc(CSc2cnc(NC(=O)C3CCNCC3)s2)o1 + CC(C)NCC(C(=O)N1CCN(c2ncnc3c2C(C)CC3O)CC1)c1ccc(Cl)cc1,IC50,second compound 0.1 µM,165 nM
same,IC50,second compound 0.316 µM,103 nM
same,IC50,second compound 1 µM,< 9.49 nM
same,IC50,second compound 3.16 µM,< 9.49 nM
same,IC50,second compound 10 µM,< 9.49 nM
same,"viability, T/C","second compound 0.1 µM, first compound 0.00949 µM",80.2%
same,"viability, T/C","second compound 0.1 µM, first compound 0.03 µM",98.4%
same,"viability, T/C","second compound 0.1 µM, first compound 0.0949 µM",95.3%
same,"viability, T/C","second compound 0.1 µM, first compound 0.3 µM",4.14%
same,"viability, T/C","second compound 0.1 µM, first compound 0.949 µM",6.3%
same,"viability, T/C","second compound 0.1 µM, first compound 3 µM",6.84%
same,"viability, T/C","second compound 0.316 µM, first compound 0.00949 µM",49.9%
same,"viability, T/C","second compound 0.316 µM, first compound 0.03 µM",46.9%
same,"viability, T/C","second compound 0.316 µM, first compound 0.0949 µM",64%
same,"viability, T/C","second compound 0.316 µM, first compound 0.3 µM",3.47%
same,"viability, T/C","second compound 0.316 µM, first compound 0.949 µM",5.07%
same,"viability, T/C","second compound 0.316 µM, first compound 3 µM",5.91%
same,"viability, T/C","second compound 1 µM, first compound 0.00949 µM",31.3%
same,"viability, T/C","second compound 1 µM, first compound 0.03 µM",34.9%
same,"viability, T/C","second compound 1 µM, first compound 0.0949 µM",36.7%
same,"viability, T/C","second compound 1 µM, first compound 0.3 µM",3.39%
same,"viability, T/C","second compound 1 µM, first compound 0.949 µM",4.05%
same,"viability, T/C","second compound 1 µM, first compound 3 µM",5.41%
same,"viability, T/C","second compound 3.16 µM, first compound 0.00949 µM",17.2%
same,"viability, T/C","second compound 3.16 µM, first compound 0.03 µM",19.3%
same,"viability, T/C","second compound 3.16 µM, first compound 0.0949 µM",19.5%
same,"viability, T/C","second compound 3.16 µM, first compound 0.3 µM",3%
same,"viability, T/C","second compound 3.16 µM, first compound 0.949 µM",3.25%
same,"viability, T/C","second compound 3.16 µM, first compound 3 µM",4.47%
same,"viability, T/C","second compound 10 µM, first compound 0.00949 µM",14.8%
same,"viability, T/C","second compound 10 µM, first compound 0.03 µM",16.8%
same,"viability, T/C","second compound 10 µM, first compound 0.0949 µM",10.1%
same,"viability, T/C","second compound 10 µM, first compound 0.3 µM",2.76%
same,"viability, T/C","second compound 10 µM, first compound 0.949 µM",3.15%
same,"viability, T/C","second compound 10 µM, first compound 3 µM",3.94%
C=CC(=O)N1CCN(c2nc(=O)n(-c3c(C)ccnc3C(C)C)c3nc(-c4c(O)cccc4F)c(F)cc23)C(C)C1 (stereo not given) + CCN1CCN(Cc2ccc(Nc3ncc(F)c(-c4cc(F)c5nc(C)n(C(C)C)c5c4)n3)nc2)CC1,IC50,second compound 0.01 µM,> 10000 nM
same,IC50,second compound 0.0316 µM,> 10000 nM
same,IC50,second compound 0.1 µM,> 10000 nM
same,IC50,second compound 0.316 µM,> 10000 nM
same,IC50,second compound 1 µM,5260 nM
same,"viability, T/C","second compound 0.01 µM, first compound 0.0316 µM",84.3%
same,"viability, T/C","second compound 0.01 µM, first compound 0.1 µM",96%
same,"viability, T/C","second compound 0.01 µM, first compound 0.316 µM",98.6%
same,"viability, T/C","second compound 0.01 µM, first compound 1 µM",101%
same,"viability, T/C","second compound 0.01 µM, first compound 3.16 µM",114%
same,"viability, T/C","second compound 0.01 µM, first compound 10 µM",116%
same,"viability, T/C","second compound 0.0316 µM, first compound 0.0316 µM",51.8%
same,"viability, T/C","second compound 0.0316 µM, first compound 0.1 µM",57.3%
same,"viability, T/C","second compound 0.0316 µM, first compound 0.316 µM",69.8%
same,"viability, T/C","second compound 0.0316 µM, first compound 1 µM",79.2%
same,"viability, T/C","second compound 0.0316 µM, first compound 3.16 µM",107%
same,"viability, T/C","second compound 0.0316 µM, first compound 10 µM",78.5%
same,"viability, T/C","second compound 0.1 µM, first compound 0.0316 µM",58.1%
same,"viability, T/C","second compound 0.1 µM, first compound 0.1 µM",60.2%
same,"viability, T/C","second compound 0.1 µM, first compound 0.316 µM",60.4%
same,"viability, T/C","second compound 0.1 µM, first compound 1 µM",54.7%
same,"viability, T/C","second compound 0.1 µM, first compound 3.16 µM",64.2%
same,"viability, T/C","second compound 0.1 µM, first compound 10 µM",74.8%
same,"viability, T/C","second compound 0.316 µM, first compound 0.0316 µM",65.2%
same,"viability, T/C","second compound 0.316 µM, first compound 0.1 µM",67.8%
same,"viability, T/C","second compound 0.316 µM, first compound 0.316 µM",68.4%
same,"viability, T/C","second compound 0.316 µM, first compound 1 µM",70.6%
same,"viability, T/C","second compound 0.316 µM, first compound 3.16 µM",61%
same,"viability, T/C","second compound 0.316 µM, first compound 10 µM",48.2%
same,"viability, T/C","second compound 1 µM, first compound 0.0316 µM",56.3%
same,"viability, T/C","second compound 1 µM, first compound 0.1 µM",65.5%
same,"viability, T/C","second compound 1 µM, first compound 0.316 µM",60.5%
same,"viability, T/C","second compound 1 µM, first compound 1 µM",59.1%
same,"viability, T/C","second compound 1 µM, first compound 3.16 µM",60.3%
same,"viability, T/C","second compound 1 µM, first compound 10 µM",37.5%
